Source: US20240358684A1, “METHOD FOR ENHANCING INNATE IMMUNE RESPONSE” (Kyoto University, priority 2021, published 2024)

Tested on: OAS1 exon 5 splice donor (SD) sequence
Test: RNA pull-down assay with OAS1 exon 5 splice donor RNA and western blot
Assay type: binding, human
Conditions: Calu-3 cell lysate, 10 μM
Protocol: Calu-3 whole cell lysates were prepared using a lysis buffer containing 10 mM Tris-HCl (pH 7.4), 150 mM NaCl, 1 mM ethylenediaminetetraacetic acid, 1% Triton X-100, 0.1% sodium dodecyl sulphate, 0.25% sodium deoxycholate, and 10% glycerol with protease inhibitors (Nacalai Tesque) and phosphatase inhibitors (Sigma-Aldrich, Munich, Germany), followed by sonication, treatment with DNase I (Promega. Madison, WI, USA) at 37° C. for 5 min, and centrifugation (24,000×g at 4° C. for 15 min). The supernatant was used as the soluble fraction for the RNA-pull down assay. […] This was followed by washing the resultant thrice with tris-buffered saline and elution with Laemmli buffer. Three technical replicates for RNA pull-down assay were independently conducted, three times from a stocked cell lysate. […] Chemiluminescent signals were detected using a ChemiDoc MP Imaging System (Bio-Rad, Hercules, CA, USA).

N=C1NC(=O)/C(=C/c2ccc3c(c2)CCO3)S1 [compound 1]
U1snRNP (U1-70k) binding to OAS1 exon 5 donor site: enhanced
phosphorylated SRSF6 in OAS1 SD pull-down products: not detected
